Assay results taken from patent US8852587B2 (priority 2008, dated 2014).
Like-named read-outs stand apart in the source and are kept apart here.

Target: PrP^Sc (Mus musculus, UniProt P04925)
Format: binding
[1] = affinity for PrPSc pulldown compared to peptide LH3 (CDR3H)
[2] = pull-down, compared to peptide LH3
[3] = pull-down, compared to peptide LH3 (CDR3H)

Chain of PrP^Sc (P04925 23-230 limits assumed): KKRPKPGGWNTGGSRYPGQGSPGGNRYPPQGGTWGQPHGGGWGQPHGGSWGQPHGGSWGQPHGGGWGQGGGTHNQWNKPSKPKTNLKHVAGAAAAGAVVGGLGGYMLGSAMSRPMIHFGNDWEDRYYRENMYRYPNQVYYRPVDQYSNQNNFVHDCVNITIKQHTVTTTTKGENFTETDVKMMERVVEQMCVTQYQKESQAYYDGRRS

Substance	Specificity	Specificity [3]	also measured
H-YFCARWNWERDAMDYWG-OH [CDR3H]	PrP^Sc	–	Affinity: 0
YFAARWNWERDAMDYWG [LH3A3]	PrP^Sc	–	–
YFCAAWNWERDAMDYWG [LH3A5]	PrP^Sc	–	–
YFCADWNWERDAMDYWG [LH3D5]	PrP^Sc	–	change of affinity for PrP^Sc: slightly decreases affinity for PrP^Sc
YFCARANWERDAMDYWG [LH3A6]	PrP^Sc	–	–
YFCARWAWERDAMDYWG [LH3A7]	–	PrP^Sc	Affinity [1]: (+); change of affinity for PrP^Sc [2]: slightly increase affinity for PrP^Sc
YFCARWNAERDAMDYWG [LH3A8]	PrP^Sc	–	–
YFCARWNWARDAMDYWG [LH3A9]	PrP^Sc	–	–
YFCARWNWEADAMDYWG [LH3A10]	–	PrP^C	Specificity [2]: binds to PrP^C
YFCARWNWEDDAMDYWG [LH3D10]	PrP^Sc	–	Affinity: (+); change of affinity for PrP^Sc: slightly increase affinity for PrP^Sc
YFCARWNWERAAMDYWG [LH3A11]	PrP^Sc	–	–
YFCARWNWERDAADYWG [LH3A13]	–	PrP^Sc	Affinity [1]: +; change of affinity for PrP^Sc [2]: increase affinity for PrP^Sc
YFCARWNWERDAMAYWG [LH3A14]	–	PrP^Sc	Affinity [1]: (+); change of affinity for PrP^Sc [2]: slightly increase affinity for PrP^Sc
YFCARWNWERDAMDAWG [LH3A15]	PrP^Sc	–	–
YFCARWNWERDAMRYWG [LH3R14]	PrP^Sc	–	–
YFCARWNWERRAMDYWG [LH3R11]	–	PrP^Sc	Affinity [1]: +; change of affinity for PrP^Sc [2]: increase affinity for PrP^Sc
YFCARWNWRRDAMDYWG [LH3R9]	–	PrP^Sc	Affinity [1]: (+); change of affinity for PrP^Sc [2]: slightly increase affinity for PrP^Sc
